Measurements: the NIST ThermoML archive (doi:10.1016/j.jct.2008.01.024)
Numbers after ± are expanded uncertainties.

What was measured:
[1] = Liquid; for mass density: 298.15 K, 101.33 kPa; for vapor or sublimation pressure: 313.15 K, Ebulliometric method (Recirculating still)
[2] = excess molar enthalpy (molar enthalpy of mixing); xn = mol fraction of the nth substance listed; conditions: 101 kPa, Liquid, Flow calorimetry

CCCCCl [1-chlorobutane]
[1]
Conditions | mass density [kg/m3] | vapor or sublimation pressure [kPa]
– | 880.72 ± 0.21 | 25.72 ± 0.028

CCCCCl [1-chlorobutane] + CN1CCCC1=O
[2]
Conditions | excess molar enthalpy [kcal/mol]
298.15 K, x2 = 0.063 | 0.00454 ± 0.000956
298.15 K, x2 = 0.113 | 0.0098 ± 0.000956
298.15 K, x2 = 0.213 | 0.0194 ± 0.000956
298.15 K, x2 = 0.312 | 0.027 ± 0.000956
298.15 K, x2 = 0.411 | 0.0327 ± 0.000956
298.15 K, x2 = 0.51 | 0.0363 ± 0.000956
298.15 K, x2 = 0.608 | 0.037 ± 0.000956
298.15 K, x2 = 0.706 | 0.0347 ± 0.000956
298.15 K, x2 = 0.804 | 0.0284 ± 0.000956
298.15 K, x2 = 0.901 | 0.0167 ± 0.000956
298.15 K, x2 = 0.949 | 0.00908 ± 0.000956
308.15 K, x2 = 0.06 | 0.00813 ± 0.000956
308.15 K, x2 = 0.11 | 0.0153 ± 0.000956
308.15 K, x2 = 0.208 | 0.0275 ± 0.000956
308.15 K, x2 = 0.307 | 0.0363 ± 0.000956
308.15 K, x2 = 0.406 | 0.0421 ± 0.0012
308.15 K, x2 = 0.504 | 0.0457 ± 0.0012
308.15 K, x2 = 0.603 | 0.0457 ± 0.0012
308.15 K, x2 = 0.701 | 0.0421 ± 0.0012
308.15 K, x2 = 0.799 | 0.0339 ± 0.000956
308.15 K, x2 = 0.897 | 0.0198 ± 0.000956
308.15 K, x2 = 0.946 | 0.011 ± 0.000956
308.15 K, x2 = 0.965 | 0.00598 ± 0.0012

CCCCCCCl [1-chlorohexane]
[1]
Conditions | mass density [kg/m3] | vapor or sublimation pressure [kPa]
– | 873.21 ± 0.83 | 2.857 ± 0.009

CCCCCCCl [1-chlorohexane] + CN1CCCC1=O
excess molar enthalpy [kcal/mol], [2]
Conditions | 298.15 K | 308.15 K
x2 = 0.062 | – | 0.0165 ± 0.0012
x2 = 0.064 | 0.0127 ± 0.0012 | –
x2 = 0.111 | – | 0.0349 ± 0.0012
x2 = 0.113 | 0.0287 ± 0.0012 | –
x2 = 0.208 | – | 0.0652 ± 0.0012
x2 = 0.21 | 0.0554 ± 0.0012 | –
x2 = 0.306 | – | 0.0891 ± 0.00143
x2 = 0.308 | 0.0774 ± 0.0012 | –
x2 = 0.404 | – | 0.104 ± 0.00143
x2 = 0.406 | 0.0913 ± 0.0012 | –
x2 = 0.502 | – | 0.112 ± 0.00143
x2 = 0.503 | 0.0994 ± 0.0012 | –
x2 = 0.601 | 0.1 ± 0.0012 | 0.112 ± 0.00143
x2 = 0.699 | 0.093 ± 0.0012 | 0.103 ± 0.00143
x2 = 0.797 | 0.0762 ± 0.0012 | –
x2 = 0.798 | – | 0.0841 ± 0.00143
x2 = 0.895 | 0.0466 ± 0.0012 | –
x2 = 0.897 | – | 0.0507 ± 0.00143
x2 = 0.944 | 0.0265 ± 0.00143 | –
x2 = 0.947 | – | 0.027 ± 0.00143
x2 = 0.967 | – | 0.0174 ± 0.00143

CCCCCCCCCl [1-chlorooctane]
Conditions | mass density [kg/m3]
[1] | 868.98 ± 1.6

CCCCCCCCCl [1-chlorooctane] + CN1CCCC1=O
[2]
Conditions | excess molar enthalpy [kcal/mol]
298.15 K, x2 = 0.073 | 0.0229 ± 0.00143
298.15 K, x2 = 0.121 | 0.0473 ± 0.00143
298.15 K, x2 = 0.217 | 0.0887 ± 0.00143
298.15 K, x2 = 0.314 | 0.12 ± 0.00143
298.15 K, x2 = 0.411 | 0.141 ± 0.00143
298.15 K, x2 = 0.507 | 0.152 ± 0.00167
298.15 K, x2 = 0.604 | 0.154 ± 0.00167
298.15 K, x2 = 0.701 | 0.143 ± 0.00167
298.15 K, x2 = 0.798 | 0.12 ± 0.00167
298.15 K, x2 = 0.895 | 0.076 ± 0.00167
298.15 K, x2 = 0.943 | 0.0423 ± 0.00167
308.15 K, x2 = 0.068 | 0.0268 ± 0.00143
308.15 K, x2 = 0.116 | 0.0533 ± 0.00143
308.15 K, x2 = 0.213 | 0.098 ± 0.00143
308.15 K, x2 = 0.309 | 0.132 ± 0.00167
308.15 K, x2 = 0.406 | 0.155 ± 0.00167
308.15 K, x2 = 0.504 | 0.167 ± 0.00167
308.15 K, x2 = 0.602 | 0.1678 ± 0.00167
308.15 K, x2 = 0.7 | 0.156 ± 0.00167
308.15 K, x2 = 0.799 | 0.129 ± 0.00167
308.15 K, x2 = 0.898 | 0.081 ± 0.00167
308.15 K, x2 = 0.948 | 0.0449 ± 0.00191
308.15 K, x2 = 0.968 | 0.0263 ± 0.00215

CN1CCCC1=O [N-methylpyrrolidone]
Conditions | mass density [kg/m3]
[1] | 1028.55 ± 0.6
